{"source": "patent US12522855B2", "about": "“Methods and kits for identifying thrombus origin and optimizing post-ischemic event treatment” (TEL HASHOMER MEDICAL RESEARCH INFRASTRUCTURE AND SERVICES …, priority 2019, dated 2026)", "target": "thrombin (Homo sapiens, UniProt P00734)", "conditions": "1 μM final concentration, added to selected reaction wells; 15 clots from randomized sources", "experimental": "Thrombin activity was measured as previously described by Beilin et al., (2001, Neuroreport: doi:10.1097/00001756-200108080-00013) in 10 L triplicates of clot-free buffer in a black Nunc 96 wells microplate by a fluorometric assay quantifying the cleavage of the synthetic peptide thrombin substrate Boc-Asp(OBzl)-Pro-Arg-AMC (I-1560, Bachem, Switzerland, 13 μM final concentration). Measurements were performed by the Infinite 2000 microplate reader (Tecan, infinite 200, Switzerland) with excitation and emission filters of 360±35 and 460±35 nm, respectively. For calibration, known concentrations of bovine thrombin (Sigma-Aldrich, Israel) were used in the same assay."}
{"substance": "NAPAP", "values": [{"measurement": "effect on thrombin activity profile (specificity check of the fluorescent signal)", "value": "high and consistent abolition of thrombin activity profile"}]}
